Measurements published in PubChem BioAssay (NCI).
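Assay format: 96-well plates, 48-hour exposure. At the TGI there is no net growth.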

Experiments:
Assay in all cases: NCI tumour cell line growth inhibition, 48 h
786-0 renal = test system: 786-0 renal
A498 renal = test system: A498 renal
A549 NSCLC = test system: A549 NSCLC
ACHN renal = test system: ACHN renal
CAKI-1 renal = test system: CAKI-1 renal
CCRF-CEM leukemia = test system: CCRF-CEM leukemia
DMS 114 small cell lung = test system: DMS 114 small cell lung
EKVX NSCLC = test system: EKVX NSCLC
HCC-2998 colon = test system: HCC-2998 colon
HCT-116 colon = test system: HCT-116 colon
HCT-15 colon = test system: HCT-15 colon
HL-60(TB) leukemia = test system: HL-60(TB) leukemia
HOP-18 NSCLC = test system: HOP-18 NSCLC
HOP-62 NSCLC = test system: HOP-62 NSCLC
HOP-92 NSCLC = test system: HOP-92 NSCLC
HT29 colon = test system: HT29 colon
IGROV1 ovarian = test system: IGROV1 ovarian
K-562 leukemia = test system: K-562 leukemia
KM12 colon = test system: KM12 colon
KM20L2 colon = test system: KM20L2 colon
LXFL 529 NSCLC = test system: LXFL 529 NSCLC
M14 melanoma = test system: M14 melanoma
M19-MEL melanoma = test system: M19-MEL melanoma
MALME-3M melanoma = test system: MALME-3M melanoma
MOLT-4 leukemia = test system: MOLT-4 leukemia
NCI-H23 lung = test system: NCI-H23 lung
NCI-H460 lung = test system: NCI-H460 lung
NCI-H522 lung = test system: NCI-H522 lung
OVCAR-3 ovarian = test system: OVCAR-3 ovarian
OVCAR-4 ovarian = test system: OVCAR-4 ovarian
OVCAR-5 ovarian = test system: OVCAR-5 ovarian
OVCAR-8 ovarian = test system: OVCAR-8 ovarian
RXF 393 renal = test system: RXF 393 renal
SF-268 CNS = test system: SF-268 CNS
SF-295 CNS = test system: SF-295 CNS
SF-539 CNS = test system: SF-539 CNS
SK-MEL-2 melanoma = test system: SK-MEL-2 melanoma
SK-MEL-28 melanoma = test system: SK-MEL-28 melanoma
SK-MEL-5 melanoma = test system: SK-MEL-5 melanoma
SN12C renal = test system: SN12C renal
SNB-78 CNS = test system: SNB-78 CNS
SR leukemia = test system: SR leukemia
SW-620 colon = test system: SW-620 colon
TK-10 renal = test system: TK-10 renal
U251 CNS = test system: U251 CNS
UACC-257 melanoma = test system: UACC-257 melanoma
UACC-62 melanoma = test system: UACC-62 melanoma
UO-31 renal = test system: UO-31 renal
COLO 205 colon = test system: COLO 205 colon
DLD-1 colon = test system: DLD-1 colon
DMS 273 small cell lung = test system: DMS 273 small cell lung
NCI-H226 lung = test system: NCI-H226 lung
RPMI-8226 leukemia = test system: RPMI-8226 leukemia
SK-OV-3 ovarian = test system: SK-OV-3 ovarian
SNB-19 CNS = test system: SNB-19 CNS
SNB-75 CNS = test system: SNB-75 CNS
XF 498 CNS = test system: XF 498 CNS
LOX IMVI melanoma = test system: LOX IMVI melanoma

CCCC/C=C1\CCC(C)(CN(C)C)C1=O (stereo unspecified)
TGI (786-0 renal): > 100 µM
TGI (A498 renal): > 100 µM
TGI (A549 NSCLC): > 100 µM
TGI (ACHN renal): > 100 µM
TGI (CAKI-1 renal): > 100 µM
TGI (CCRF-CEM leukemia): > 100 µM
TGI (DMS 114 small cell lung): > 100 µM
TGI (EKVX NSCLC): > 100 µM
TGI (HCC-2998 colon): > 100 µM
TGI (HCT-116 colon): > 100 µM
TGI (HCT-15 colon): > 100 µM
TGI (HL-60(TB) leukemia): > 100 µM
TGI (HOP-18 NSCLC): > 100 µM
TGI (HOP-62 NSCLC): > 100 µM
TGI (HOP-92 NSCLC): > 100 µM
TGI (HT29 colon): > 100 µM
TGI (IGROV1 ovarian): > 100 µM
TGI (K-562 leukemia): > 100 µM
TGI (KM12 colon): > 100 µM
TGI (KM20L2 colon): > 100 µM
TGI (LXFL 529 NSCLC): > 100 µM
TGI (M14 melanoma): > 100 µM
TGI (M19-MEL melanoma): 29 µM
TGI (MALME-3M melanoma): > 100 µM
TGI (MOLT-4 leukemia): > 100 µM
TGI (NCI-H23 lung): > 100 µM
TGI (NCI-H460 lung): > 100 µM
TGI (NCI-H522 lung): 75.9 µM
TGI (OVCAR-3 ovarian): > 100 µM
TGI (OVCAR-4 ovarian): > 100 µM
TGI (OVCAR-5 ovarian): > 100 µM
TGI (OVCAR-8 ovarian): > 100 µM
TGI (RXF 393 renal): > 100 µM
TGI (SF-268 CNS): > 100 µM
TGI (SF-295 CNS): > 100 µM
TGI (SF-539 CNS): > 100 µM
TGI (SK-MEL-2 melanoma): > 100 µM
TGI (SK-MEL-28 melanoma): > 100 µM
TGI (SK-MEL-5 melanoma): > 100 µM
TGI (SN12C renal): > 100 µM
TGI (SNB-78 CNS): > 100 µM
TGI (SR leukemia): > 100 µM
TGI (SW-620 colon): > 100 µM
TGI (TK-10 renal): > 100 µM
TGI (U251 CNS): > 100 µM
TGI (UACC-257 melanoma): > 100 µM
TGI (UACC-62 melanoma): > 100 µM
TGI (UO-31 renal): > 100 µM

O=[N+]([O-])c1cc(C2SCc3nc4ccccc4n32)ccc1Cl (stereo unspecified)
TGI (786-0 renal): > 100 µM
TGI (A498 renal): 69.6 µM
TGI (A549 NSCLC): > 100 µM
TGI (ACHN renal): > 100 µM
TGI (CAKI-1 renal): > 100 µM
TGI (CCRF-CEM leukemia): 85.9 µM
TGI (COLO 205 colon): 46.6 µM
TGI (DLD-1 colon): > 100 µM
TGI (DMS 114 small cell lung): 54.3 µM
TGI (DMS 273 small cell lung): 58 µM
TGI (EKVX NSCLC): > 100 µM
TGI (HCC-2998 colon): 34.3 µM
TGI (HCT-116 colon): 40.4 µM
TGI (HL-60(TB) leukemia): 42.4 µM
TGI (HOP-18 NSCLC): > 100 µM
TGI (HOP-92 NSCLC): 49.3 µM
TGI (HT29 colon): > 100 µM
TGI (IGROV1 ovarian): > 100 µM
TGI (K-562 leukemia): > 100 µM
TGI (KM12 colon): 31.3 µM
TGI (LXFL 529 NSCLC): 99.7 µM
TGI (M19-MEL melanoma): 53.9 µM
TGI (MALME-3M melanoma): > 100 µM
TGI (MOLT-4 leukemia): > 100 µM
TGI (NCI-H226 lung): 61.8 µM
TGI (NCI-H23 lung): 78.1 µM
TGI (NCI-H460 lung): > 100 µM
TGI (NCI-H522 lung): 77.1 µM
TGI (OVCAR-3 ovarian): 67.6 µM
TGI (OVCAR-5 ovarian): 76.8 µM
TGI (OVCAR-8 ovarian): > 100 µM
TGI (RPMI-8226 leukemia): 60.2 µM
TGI (RXF 393 renal): 79 µM
TGI (SF-268 CNS): 81.1 µM
TGI (SF-295 CNS): > 100 µM
TGI (SF-539 CNS): 89.5 µM
TGI (SK-MEL-2 melanoma): 50.9 µM
TGI (SK-MEL-28 melanoma): > 100 µM
TGI (SK-MEL-5 melanoma): 28.3 µM
TGI (SK-OV-3 ovarian): 66.2 µM
TGI (SN12C renal): 33.8 µM
TGI (SNB-19 CNS): > 100 µM
TGI (SNB-75 CNS): > 100 µM
TGI (SNB-78 CNS): 80.1 µM
TGI (SR leukemia): > 100 µM
TGI (SW-620 colon): > 100 µM
TGI (TK-10 renal): > 100 µM
TGI (U251 CNS): > 100 µM
TGI (UACC-257 melanoma): 53.1 µM
TGI (UACC-62 melanoma): 52.6 µM
TGI (UO-31 renal): 58.6 µM

C/C=C1/CCC2c3[nH]c4ccccc4c3CCN2C1 (stereo unspecified)
TGI (786-0 renal): > 100 µM
TGI (A498 renal): > 100 µM
TGI (A549 NSCLC): > 100 µM
TGI (ACHN renal): > 100 µM
TGI (CAKI-1 renal): > 100 µM
TGI (CCRF-CEM leukemia): > 100 µM
TGI (DLD-1 colon): > 100 µM
TGI (DMS 114 small cell lung): > 100 µM
TGI (DMS 273 small cell lung): > 100 µM
TGI (EKVX NSCLC): > 100 µM
TGI (HCT-116 colon): > 100 µM
TGI (HL-60(TB) leukemia): > 100 µM
TGI (HOP-62 NSCLC): > 100 µM
TGI (HOP-92 NSCLC): 86.6 µM
TGI (HT29 colon): > 100 µM
TGI (IGROV1 ovarian): > 100 µM
TGI (K-562 leukemia): > 100 µM
TGI (KM12 colon): > 100 µM
TGI (KM20L2 colon): > 100 µM
TGI (LXFL 529 NSCLC): > 100 µM
TGI (M14 melanoma): 33.2 µM
TGI (M19-MEL melanoma): > 100 µM
TGI (MALME-3M melanoma): 67.7 µM
TGI (MOLT-4 leukemia): > 100 µM
TGI (NCI-H226 lung): > 100 µM
TGI (NCI-H23 lung): > 100 µM
TGI (NCI-H460 lung): > 100 µM
TGI (NCI-H522 lung): > 100 µM
TGI (OVCAR-3 ovarian): > 100 µM
TGI (OVCAR-4 ovarian): > 100 µM
TGI (OVCAR-5 ovarian): > 100 µM
TGI (OVCAR-8 ovarian): > 100 µM
TGI (RXF 393 renal): > 100 µM
TGI (SF-268 CNS): > 100 µM
TGI (SF-295 CNS): > 100 µM
TGI (SF-539 CNS): > 100 µM
TGI (SK-MEL-2 melanoma): > 100 µM
TGI (SK-MEL-28 melanoma): > 100 µM
TGI (SK-MEL-5 melanoma): > 100 µM
TGI (SK-OV-3 ovarian): > 100 µM
TGI (SN12C renal): > 100 µM
TGI (SNB-19 CNS): > 100 µM
TGI (SNB-75 CNS): > 100 µM
TGI (SNB-78 CNS): > 100 µM
TGI (SR leukemia): > 100 µM
TGI (SW-620 colon): > 100 µM
TGI (TK-10 renal): > 100 µM
TGI (U251 CNS): > 100 µM
TGI (UACC-257 melanoma): > 100 µM
TGI (UACC-62 melanoma): > 100 µM
TGI (UO-31 renal): > 100 µM
TGI (XF 498 CNS): > 100 µM

CN(C)CCNC(=O)c1cccc2[nH]c(-c3cccnc3)nc12
TGI (786-0 renal): 55.6 µM
TGI (A498 renal): 30.6 µM
TGI (A549 NSCLC): 43.5 µM
TGI (ACHN renal): 37 µM
TGI (CAKI-1 renal): 88.1 µM
TGI (CCRF-CEM leukemia): > 100 µM
TGI (COLO 205 colon): 32.5 µM
TGI (DLD-1 colon): 73.1 µM
TGI (DMS 273 small cell lung): 74.4 µM
TGI (EKVX NSCLC): 56.5 µM
TGI (HCC-2998 colon): 43.4 µM
TGI (HCT-116 colon): 42.8 µM
TGI (HCT-15 colon): 79.6 µM
TGI (HL-60(TB) leukemia): > 100 µM
TGI (HOP-18 NSCLC): 84 µM
TGI (HOP-62 NSCLC): 44.1 µM
TGI (HOP-92 NSCLC): 53.9 µM
TGI (HT29 colon): 92.8 µM
TGI (IGROV1 ovarian): > 100 µM
TGI (K-562 leukemia): > 100 µM
TGI (KM12 colon): > 100 µM
TGI (LOX IMVI melanoma): 48.7 µM
TGI (M14 melanoma): 43.8 µM
TGI (M19-MEL melanoma): 39.8 µM
TGI (MOLT-4 leukemia): > 100 µM
TGI (NCI-H226 lung): 56.6 µM
TGI (NCI-H23 lung): 44.9 µM
TGI (NCI-H460 lung): 49.9 µM
TGI (OVCAR-3 ovarian): 56.3 µM
TGI (OVCAR-4 ovarian): 88.9 µM
TGI (OVCAR-5 ovarian): 64.2 µM
TGI (OVCAR-8 ovarian): 44.1 µM
TGI (RXF 393 renal): 33.8 µM
TGI (SF-268 CNS): 98.7 µM
TGI (SF-295 CNS): > 100 µM
TGI (SF-539 CNS): 45.5 µM
TGI (SK-MEL-2 melanoma): 62.8 µM
TGI (SK-MEL-28 melanoma): 83.8 µM
TGI (SK-MEL-5 melanoma): 30.8 µM
TGI (SK-OV-3 ovarian): 80.3 µM
TGI (SN12C renal): 54.4 µM
TGI (SNB-19 CNS): > 100 µM
TGI (SNB-75 CNS): 73.3 µM
TGI (SNB-78 CNS): > 100 µM
TGI (SW-620 colon): 42.1 µM
TGI (TK-10 renal): 53.5 µM
TGI (U251 CNS): 74.7 µM
TGI (UACC-257 melanoma): 39.9 µM
TGI (UACC-62 melanoma): 34.2 µM
TGI (UO-31 renal): 39.5 µM
